Measurements published in patent US9534209B2, “Methods and tools for identification of RSK/MSK kinase inhibitors” (Aarhus Universitet, priority 2012, dated 2017).
Where a name gives a salt, the structure may show the parent alone.

Columns and labels:
human MSK1 = biological target: T1, human MSK1 (Homo sapiens, UniProt O75582, C603V); experiment: Mutational study of MSK1 in EGF-stimulated HEK 293 cells, Western blot p-MSK1 (Ser376); format: cell-based; details: 140 μM DMF pre-incubated 1 hour, 1 ng/ml EGF for 30 minutes
T1 construct: expressed in transfected cells; host or cells: HEK-293, vector pEBG2T
T1 sequence (O75582 whole entry C603V): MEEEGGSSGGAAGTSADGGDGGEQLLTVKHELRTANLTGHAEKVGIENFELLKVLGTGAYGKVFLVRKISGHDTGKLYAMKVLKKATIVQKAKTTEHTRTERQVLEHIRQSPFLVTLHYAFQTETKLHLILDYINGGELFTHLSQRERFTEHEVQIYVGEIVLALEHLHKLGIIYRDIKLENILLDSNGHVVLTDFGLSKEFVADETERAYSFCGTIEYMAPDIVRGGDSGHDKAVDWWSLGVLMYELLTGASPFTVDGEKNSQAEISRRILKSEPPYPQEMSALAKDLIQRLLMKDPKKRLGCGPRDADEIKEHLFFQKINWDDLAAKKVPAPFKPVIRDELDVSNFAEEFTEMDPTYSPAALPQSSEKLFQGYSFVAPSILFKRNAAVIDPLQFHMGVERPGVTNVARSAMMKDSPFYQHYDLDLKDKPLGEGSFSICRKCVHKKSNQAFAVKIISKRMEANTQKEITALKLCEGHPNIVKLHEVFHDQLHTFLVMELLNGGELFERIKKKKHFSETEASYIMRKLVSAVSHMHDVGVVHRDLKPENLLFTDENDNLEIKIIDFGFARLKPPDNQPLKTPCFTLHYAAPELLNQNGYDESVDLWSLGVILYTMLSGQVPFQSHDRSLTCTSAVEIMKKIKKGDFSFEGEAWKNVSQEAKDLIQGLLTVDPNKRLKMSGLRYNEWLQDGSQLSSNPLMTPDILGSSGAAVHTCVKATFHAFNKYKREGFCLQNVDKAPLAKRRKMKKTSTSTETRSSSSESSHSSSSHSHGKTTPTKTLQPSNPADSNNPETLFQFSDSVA
Protocol: Mutational analysis of MSK1 was performed in a mammalian expression vector (pEBG2T) in which a glutathione S-transferase (GST) domain and FLAG-tag (Asp-Tyr-Lys-Asp-Asp-Asp-Asp-Lys) was fused to the N-terminus of human MSK1 (GST-FLAG-MSK1)^6. The positions corresponding to C436, T579 and C599 in murine RSK2 (SEQ ID NO: 1) of human MSK1 (C440, T583 and C603) were mutated to Val, Ser and Thr (For T583 only an Ala mutation was performed) using the QuikChange Lightning Kit (Agilent Technologies).
Human embryonic kidney cells (HEK-293) were cultured in tissue culture flasks (150 cm^2) to 60% confluence in Dulbecco's modified Eagle's medium (DMEM) (Gibco) supplemented with 50 units/ml penicillin G (Gibco), […] streptomycin (Invitrogen), 5 μg/ml gentamycin (Gibco), 10% (v/v) foetal bovine serum (FBS) (Gibco) and 2.5% HEPES (Gibco). […]
Dimethylfumarate (DMF) (Sigma-Aldrich) was dissolved in dimethylsulfoxide (DMSO) (Merck) resulting in a 70 mM stock solution and diluted to 7 mM (4% v/v DMSO) in culture medium. […] Densitometry analysis of the band intensity was performed on a flatbed scanner (Epson PERFECTION V750PRO) and quantitated by Jelly Quant. […]

RSK2 = biological target: T2, RSK2 (Mus musculus, UniProt P18654, C599V); experiment: Mutational study of RSK2 in EGF-stimulated HEK 293 cells, Western blot p-RSK2 (Ser386); format: cell-based; details: 140 μM DMF pre-incubated 1 hour, 1 ng/ml EGF for 15 minutes
T2 construct: expressed in transfected cells; host or cells: HEK-293
T2 sequence (P18654 whole entry C599V): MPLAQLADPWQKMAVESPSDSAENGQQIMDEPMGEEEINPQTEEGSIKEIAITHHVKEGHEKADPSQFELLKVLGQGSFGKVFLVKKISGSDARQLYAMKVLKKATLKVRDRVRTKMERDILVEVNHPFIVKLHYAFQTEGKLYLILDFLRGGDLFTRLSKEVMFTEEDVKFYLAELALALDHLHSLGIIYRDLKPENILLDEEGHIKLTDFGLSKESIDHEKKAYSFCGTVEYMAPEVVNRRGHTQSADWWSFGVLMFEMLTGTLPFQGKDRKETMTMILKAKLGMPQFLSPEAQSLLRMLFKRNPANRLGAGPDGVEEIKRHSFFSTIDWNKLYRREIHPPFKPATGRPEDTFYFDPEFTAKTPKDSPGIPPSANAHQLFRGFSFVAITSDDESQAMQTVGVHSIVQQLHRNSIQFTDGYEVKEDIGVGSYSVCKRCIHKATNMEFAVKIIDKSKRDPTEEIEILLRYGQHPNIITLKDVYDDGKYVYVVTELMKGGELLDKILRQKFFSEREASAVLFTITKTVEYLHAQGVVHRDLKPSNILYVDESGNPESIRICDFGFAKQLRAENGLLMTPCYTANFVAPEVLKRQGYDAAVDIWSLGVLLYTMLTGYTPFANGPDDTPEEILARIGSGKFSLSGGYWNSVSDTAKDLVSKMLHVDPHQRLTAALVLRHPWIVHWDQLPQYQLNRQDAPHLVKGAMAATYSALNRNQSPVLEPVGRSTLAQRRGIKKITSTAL
Protocol: Human embryonic kidney cells (HEK-293) were cultured in tissue culture flasks (150 cm^2) to 60% confluence in Dulbecco's modified Eagle's medium (DMEM) (Gibco) supplemented with 50 units/ml penicillin G (Gibco), […] streptomycin (Invitrogen), 5 μg/ml gentamycin (Gibco), 10% (v/v) foetal bovine serum (FBS) (Gibco) and 2.5% HEPES (Gibco). Cells were trypsinated and seeded in 10 cm petri dishes at a density of 6.5×10^6 cells per dish in 10 ml DMEM supplemented with 50 μg/ml bovine pituitary growth hormone (BGH) (Gibco), antibiotics (penicillin G, streptomycin, gentamycin) and 2% FBS and 2.5% HEPES and were incubated for 2 days. The culture medium was changed to 7 ml DMEM supplemented with 2.5% Hepes for 16 hours. Transfection with plasmids was performed as previously described Jensen et al. 1999^57 with modifications. HEK-293 cells were transfected using 3.5 μg plasmid DNA/dish dissolved in 250 μl Optimem (Invitrogen) and 30 μl Lipofectamine 2000 (Invitrogen) dissolved in 250 μl Optimem added together for 20 minutes before transferred to cells. […]
Dimethylfumarate (DMF) (Sigma-Aldrich) was dissolved in dimethylsulfoxide (DMSO) (Merck) resulting in a 70 mM stock solution and diluted to 7 mM (4% v/v DMSO) in culture medium. […] Densitometry analysis of the band intensity was performed on a flatbed scanner (Epson PERFECTION V750PRO) and quantitated by Jelly Quant.

RSK2 cysteine 599 (C599) = biological target: T3, RSK2 cysteine 599 (C599) (Mus musculus, UniProt P18654); experiment: Mass spectrometric analysis of DMF modification of RSK2; format: binding, murine; details: chymotrypsin digest, MALDI TOF/TOF
T3 construct: His8 (N, cleaved yes); linker DYDIPTT (N, cleaved yes); TEV protease site ENLYFQG (only the final G remains after cleavage) (N, cleaved yes); made in house; host or cells: E. coli BL21 (DE3) Rosetta, RSK2-pET-22b
T3 sequence (P18654 with tags, fused parts or gaps): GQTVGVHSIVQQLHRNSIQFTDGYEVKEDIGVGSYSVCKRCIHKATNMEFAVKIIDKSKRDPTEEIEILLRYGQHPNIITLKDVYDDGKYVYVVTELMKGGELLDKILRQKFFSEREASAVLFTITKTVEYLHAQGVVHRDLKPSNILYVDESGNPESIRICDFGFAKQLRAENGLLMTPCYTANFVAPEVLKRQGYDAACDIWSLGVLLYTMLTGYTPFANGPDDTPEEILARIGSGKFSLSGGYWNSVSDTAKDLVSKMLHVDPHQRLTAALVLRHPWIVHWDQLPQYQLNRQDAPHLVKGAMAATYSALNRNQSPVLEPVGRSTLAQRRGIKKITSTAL
Excerpt: (§1) A construct of the C-terminal kinase domain of murine Ribosomal S6 Kinase 2 (RSK2) (residues 400-740; SEQ ID NO. 2) including a N-terminal polyhistidine tag (His8), a linker (DYDIPTT) (SEQ ID NO: 21) and a Tobacco Etch Virus (TEV) protease site (ENLYFQG) (SEQ ID NO: 22) in the expressed kinase was designed and ordered from Genscript. The synthesised gene was subcloned into pET-22b (Novagen) by the vendor resulting in RSK2-pET-22b. BI21 (DE3) Rosetta was transformed with RSK2-pET-22b and plated on lysogeny broth (LB) agar plates supplemented with 50 μg/ml ampicillin (Amp) and 35 μg/ml Chloramphenicol (Cam). 5 colonies were used for inoculation of a 20 ml LB overnight culture supplemented with 100 μg/ml Amp and 35 μg/ml Cam. […] Protein concentration was evaluated by spectrophotometry (Nanodrop, Thermo Fisher Scientific) assuming εRSK2=44350 cm^−1 M^−1 and MRSK2=38.4 kDa. […] RSK2 purity was evaluated by SDS-PAGE using a 15% separation gel. […] The purification procedure resulted >95% pure and stable RSK2 evaluated by SDS-PAGE and mass spectrometry.
RSK2 samples were reduced and alkylated with iodoacetamide, i.e. carbamidomethylated, and subsequently digested with chymotrypsin. […] The peptide mixture was analyzed in positive reflector mode for accurate peptide mass determination. […]

[1] = biological target: T4, C-terminal kinase domain of murine RSK2 (Mus musculus, UniProt P18654); experiment: X-ray co-crystal structure of RSK2 C-terminal kinase domain with DMF; format: binding; details: 1.9 Å resolution X-ray crystal structure; RSK2 8 mg/ml with 5 mM DMF, 30 min at room temperature
T4 construct: His8 (N, cleaved yes); linker DYDIPTT (N, cleaved yes); TEV protease site ENLYFQG (only the final G remains after cleavage) (N, cleaved yes); made in house; host or cells: E. coli BL21 (DE3) Rosetta, RSK2-pET-22b
T4 sequence (P18654 with tags, fused parts or gaps): as above
Excerpt: as §1, with “Cam. 2 liters of LB, supplemented with 100 μg/ml Amp and 35 μg/ml Cam, was inoculated with the overnight culture and grown at 37° C. Expression was induced with 0.1 mM isopropyl β-D-1-thiogalactopyranoside at an optical density of A600 nm=0.8 and the temperature was lowered to 20° C. for 3 h and further lowered to 12° C. for 20 hours.” for “Cam.”, “spectrometry. […]” for “spectrometry.”

binding of DMF to RSK2 in co-crystal structure [1]: binding of one DMF molecule to RSK2
Compound: COC(=O)/C=C/C(=O)OC [DMF, dimethyl fumarate]
effect of DMF on phosphorylation of S376 of MSK1 mutant C603 to valine (human MSK1): no decrease in the phosphorylation of S376 was observed
effect of DMF on phosphorylation of S386 of RSK2 mutant C599 to valine (RSK2): no decrease in the phosphorylation of S386 was observed
covalent modification of C599 of RSK2 by DMF (RSK2 cysteine 599 (C599)): Covalent modification of C599 was identified
